Experimental data as given in patent US5202315A, “Cephalosporin compounds” (Lucky, Ltd., priority 1989, dated 1993).
In brackets after ≈: the same amount, converted by molar mass. Read-outs that look alike come from different tables or passages of the source.

How the values were obtained:
[1] = tested on: Acinetobacter calcoaceticus ATCC 15473; assay: Antibacterial activity, MIC; format: cell-based; details: ATCC15473, ATCC 15473, agar two-fold dilution, 37° C., 20 hours, read-out: MIC
Outline: (§1)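 Incubation at 37 °C for 20 h followed inoculation of 2 μl standard strain (10^7 CFU/ml) onto agar carrying the compound. Compound was incorporated into Mueller-Hinton agar as two-fold serial dilutions.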

[2] = tested on: Bacillus cereus ATCC 11778; assay: Antibacterial activity, MIC; format: cell-based; details: ATCC11778, ATCC 11778, agar two-fold dilution, 37° C., 20 hours, read-out: MIC
Outline: as §1

[3] = tested on: Bacillus megaterium ATCC 9885; assay: Antibacterial activity, MIC; format: cell-based; details: Priestia megaterium, ATCC9885; ATCC 9885; agar two-fold dilution, 37° C., 20 hours; read-out: MIC
Outline: as §1

[4] = tested on: Citrobacter freundii ATCC 8090; assay: Antibacterial activity, MIC; format: cell-based; details: ATCC8090, ATCC 8090, agar two-fold dilution, 37° C., 20 hours, read-out: MIC
Outline: as §1

[5] = tested on: Enterobacter aerogenes ATCC 29751; assay: Antibacterial activity, MIC; format: cell-based; details: Klebsiella aerogenes, ATCC29751; ATCC 29751; agar two-fold dilution, 37° C., 20 hours; read-out: MIC
Outline: as §1

[6] = tested on: Enterobacter cloacae ATCC 27508; assay: Antibacterial activity, MIC; format: cell-based; details: ATCC27508, ATCC 27508, agar two-fold dilution, 37° C., 20 hours, read-out: MIC
Outline: as §1

[7] = tested on: Escherichia coli ATCC 10536; assay: Antibacterial activity, MIC; format: cell-based; details: ATCC10536, agar two-fold dilution, 37° C., 20 hours
Outline: as §1

[8] = tested on: Escherichia coli ATCC 25922; assay: Antibacterial activity, MIC; format: cell-based; details: ATCC25922, agar two-fold dilution, 37° C., 20 hours
Outline: as §1

[9] = tested on: Klebsiella pneumoniae ATCC 10031; assay: Antibacterial activity, MIC; format: cell-based; details: ATCC10031, ATCC 10031, agar two-fold dilution, 37° C., 20 hours, read-out: MIC
Outline: as §1

[10] = tested on: Morganella morganii ATCC 8076h; assay: Antibacterial activity, MIC; format: cell-based; details: ATCC8076H, agar two-fold dilution, 37° C., 20 hours
Outline: as §1

[11] = tested on: Proteus mirabilis ATCC 25933; assay: Antibacterial activity, MIC; format: cell-based; details: ATCC25933, ATCC 25933, agar two-fold dilution, 37° C., 20 hours, read-out: MIC
Outline: as §1

[12] = tested on: Proteus vulgaris ATCC 6059; assay: Antibacterial activity, MIC; format: cell-based; details: ATCC6059, ATCC 6059, agar two-fold dilution, 37° C., 20 hours, read-out: MIC
Outline: as §1

[13] = tested on: Providencia rettgeri ATCC 9250; assay: Antibacterial activity, MIC; format: cell-based; details: ATCC9250, agar two-fold dilution, 37° C., 20 hours
Outline: as §1

[14] = tested on: Pseudomonas aeruginosa ATCC 25619; assay: Antibacterial activity, MIC; format: cell-based; details: ATCC25619, ATCC 25619, agar two-fold dilution, 37° C., 20 hours, read-out: MIC
Outline: as §1

[15] = tested on: Pseudomonas aeruginosa ATCC 27853; assay: Antibacterial activity, MIC; format: cell-based; details: ATCC27853, ATCC 27853, agar two-fold dilution, 37° C., 20 hours, read-out: MIC
Outline: as §1

[16] = tested on: Salmonella typhimurium ATCC 14028; assay: Antibacterial activity, MIC; format: cell-based; details: Salmonella enterica; ATCC 14028; agar two-fold dilution, 37° C., 20 hours; read-out: MIC
Outline: as §1

[17] = tested on: Serratia marcescens ATCC 27117; assay: Antibacterial activity, MIC; format: cell-based; details: ATCC27117, ATCC 27117, agar two-fold dilution, 37° C., 20 hours, read-out: MIC
Outline: as §1

[18] = tested on: Shigella flexneri ATCC 11836; assay: Antibacterial activity, MIC; format: cell-based; details: ATCC11836, agar two-fold dilution, 37° C., 20 hours
Outline: as §1

[19] = tested on: Shigella sonnei ATCC 11060; assay: Antibacterial activity, MIC; format: cell-based; details: ATCC11060, ATCC 11060, agar two-fold dilution, 37° C., 20 hours, read-out: MIC
Outline: as §1

[20] = tested on: Staphylococcus aureus ATCC 6538p; assay: Antibacterial activity, MIC; format: cell-based; details: ATCC6538P, ATCC 6538p, agar two-fold dilution, 37° C., 20 hours, read-out: MIC
Outline: as §1

[21] = tested on: Staphylococcus epidermidis ATCC 12228; assay: Antibacterial activity, MIC; format: cell-based; details: ATCC12228, ATCC 12228, agar two-fold dilution, 37° C., 20 hours, read-out: MIC
Outline: as §1

Escherichia coli = assay: Antibacterial activity against clinically isolated strains, MIC; format: cell-based; details: 38 clinical isolates, broth microdilution test
[22] = tested on: Staphylococcus aureus methicillin susceptible; assay: as above; format: cell-based; details: methicillin susceptible, 42 clinical isolates, broth microdilution test; for MIC90: read-out: MIC 90%
[23] = tested on: Staphylococcus aureus methicillin resistant; assay: as above; format: cell-based; details: methicillin resistant, 7 clinical isolates, broth microdilution test; for MIC90: read-out: MIC 90%
Pseudomonas aeruginosa = assay: as above; format: cell-based
[24] = In-vivo absorbency (plasma concentrations & pharmacokinetic parameters); set-up: species or system SD rat (male); details: plasma, SD male rat, iv 20 mg/kg; for concentration at 1 h: 60 min; for concentration at 1 h / concentration at 2 h: read-out: Plasma Conc.; for concentration at 2 h: 120 min; for AUC / half-life: two compartment model; for half-life: rat, iv, 20 mg/kg
Text: The blood samples from the femoral vein of the rats were taken every hour after administration, and analyzed by bio-assay(agar well method).
Tested animal: SD male Rat (220~340 g)

[25] = as above; set-up: species or system SD rat (male); details: plasma, SD male rat, iv 20 mg/kg, read-out: Plasma Conc.
[26] = 54 clinical isolates, broth microdilution test

For `C[n+]1c(N)cc(N)nc1SCC1=C(C(=O)[O-])N2C(=O)C(NC(=O)/C(=N\OCC(=O)O)c3csc(N)n3)C2SC1` (stereo not drawn) [Compound I-7], the MIC [1] was 4 µg/mL (≈ 6.72 µM), the MIC [2] was 128 µg/mL (≈ 215 µM) and the MIC [3] was 0.5 µg/mL (≈ 0.839 µM). It also gave an MIC [4] of 0.031 µg/mL (≈ 0.052 µM), an MIC [5] of 0.5 µg/mL (≈ 0.839 µM) and an MIC [6] of no more than 0.008 µg/mL. For the same compound, the MIC [7] was 0.016 µg/mL (≈ 0.0269 µM), the MIC [8] was 0.016 µg/mL (≈ 0.0269 µM) and the MIC [9] was 0.016 µg/mL (≈ 0.0269 µM). The MIC [10] was no more than 0.008 µg/mL, the MIC [11] was 0.016 µg/mL (≈ 0.0269 µM) and the MIC [12] was 0.016 µg/mL (≈ 0.0269 µM). The MIC [13] was no more than 0.008 µg/mL, the MIC [14] was 2 µg/mL (≈ 3.36 µM) and the MIC [15] was 2 µg/mL (≈ 3.36 µM). It also gave an MIC [16] of 0.063 µg/mL (≈ 0.106 µM), an MIC [17] of 0.016 µg/mL (≈ 0.0269 µM) and an MIC [18] of no more than 0.008 µg/mL. The MIC [19] was 0.016 µg/mL (≈ 0.0269 µM), the MIC [20] was 2 µg/mL (≈ 3.36 µM) and the MIC [21] was 1 µg/mL (≈ 1.68 µM). For the same compound, the MIC50 (Escherichia coli) was 0.016 µg/mL (≈ 0.0269 µM), the MIC90 (Escherichia coli) was 0.063 µg/mL (≈ 0.106 µM) and the MIC50 [22] was 4 µg/mL (≈ 6.72 µM). The MIC90 [22] was 4 µg/mL (≈ 6.72 µM), the MIC [23] was greater than 32 µg/mL and the MIC50 [23] was greater than 32 µg/mL. It also gave an MIC90 [23] greater than 32 µg/mL, an MIC90 (Pseudomonas aeruginosa) of 16 µg/mL (≈ 26.9 µM) and an MIC50 (Pseudomonas aeruginosa; [26]) of 4 µg/mL (≈ 6.72 µM). It also gave a concentration at 1 h [24] of 8100 ng/mL, a concentration at 2 h [24] of 1900 ng/mL and an AUC [24] of 35700 ng·h/mL. The half-life ([24]; read-out: T1/2 (α)) was 2 min, the half-life ([24]; read-out: T1/2 (β)) was 26 min and the concentration at 1 min [25] was 128000 ng/mL. For the same compound, the concentration at 2.5 min [25] was 83000 ng/mL, the concentration at 5 min [25] was 59000 ng/mL and the concentration at 10 min [25] was 43000 ng/mL. The concentration at 20 min [25] was 29000 ng/mL and the concentration at 40 min [25] was 15000 ng/mL.

`CC[n+]1c(N)cc(N)nc1SCC1=C(C(=O)[O-])N2C(=O)C(NC(=O)/C(=N\OC(C)C(=O)O)c3csc(N)n3)C2SC1` (stereo not drawn) [Compound I-5] gave an MIC [1] of 4 µg/mL (≈ 6.41 µM), an MIC [2] of 128 µg/mL (≈ 205 µM) and an MIC [3] of 1 µg/mL (≈ 1.6 µM). It also gave an MIC [4] of 0.063 µg/mL (≈ 0.101 µM), an MIC [5] of 0.5 µg/mL (≈ 0.802 µM) and an MIC [6] of 0.016 µg/mL (≈ 0.0257 µM). It also gave an MIC [7] of 0.063 µg/mL (≈ 0.101 µM), an MIC [8] of 0.063 µg/mL (≈ 0.101 µM) and an MIC [9] of 0.031 µg/mL (≈ 0.0497 µM). It also gave an MIC [10] of no more than 0.008 µg/mL, an MIC [11] of 0.031 µg/mL (≈ 0.0497 µM) and an MIC [12] of 0.031 µg/mL (≈ 0.0497 µM). The MIC [13] was no more than 0.008 µg/mL, the MIC [14] was 1 µg/mL (≈ 1.6 µM) and the MIC [15] was 1 µg/mL (≈ 1.6 µM). It also gave an MIC [16] of 0.13 µg/mL (≈ 0.208 µM), an MIC [17] of 0.063 µg/mL (≈ 0.101 µM) and an MIC [18] of 0.031 µg/mL (≈ 0.0497 µM). For the same compound, the MIC [19] was 0.031 µg/mL (≈ 0.0497 µM), the MIC [20] was 2 µg/mL (≈ 3.21 µM) and the MIC [21] was 1 µg/mL (≈ 1.6 µM). The MIC50 (Escherichia coli) was 0.063 µg/mL (≈ 0.101 µM), the MIC90 (Escherichia coli) was 0.13 µg/mL (≈ 0.208 µM) and the MIC50 [22] was 4 µg/mL (≈ 6.41 µM). It also gave an MIC90 [22] of 4 µg/mL (≈ 6.41 µM), an MIC50 [23] greater than 128 µg/mL and an MIC90 [23] greater than 128 µg/mL. It also gave an MIC50 (Pseudomonas aeruginosa; [26]) of 4 µg/mL (≈ 6.41 µM), an MIC90 (Pseudomonas aeruginosa; 54 clinical isolates, broth microdilution test, read-out: MIC 90%) of 8 µg/mL (≈ 12.8 µM) and a concentration at 1 h [24] of 9700 ng/mL. It also gave a concentration at 2 h [24] of 3000 ng/mL, an AUC [24] of 39000 ng·h/mL and a half-life ([24]; read-out: T1/2 (α)) of 5 min. For the same compound, the half-life ([24]; read-out: T1/2 (β)) was 36 min, the concentration at 1 min [25] was 134000 ng/mL and the concentration at 2.5 min [25] was 91000 ng/mL. For the same compound, the concentration at 5 min [25] was 72000 ng/mL, the concentration at 10 min [25] was 49000 ng/mL and the concentration at 20 min [25] was 29000 ng/mL. The concentration at 40 min [25] was 13000 ng/mL.
